{
  "source": "paper PMC4496781",
  "about": "“Functional Roles of Aromatic Residues and Helices of Papiliocin in its Antimicrobial and Anti-inflammatory Activities” (Scientific Reports, 2015)",
  "key": {"E. coli (KCTC 1682)": {"tested_on": "E. coli (KCTC 1682)", "experiment": "Time-killing kinetics", "type": "cell-based, Escherichia coli", "settings": "even at 4× MIC, 37 °C"}, "[1]": {"tested_on": "gram-positive bacteria (B. subtilis, E. faecalis, S. aureus)", "method": "(§1) This property is assessed by the therapeutic index which can be defined as a ratio of the […] against human hRBCs to the MIC against bacterial cells.\n(§2) MICs of the peptides against six standard bacteria and four multidrug-resistant bacteria were determined by a broth microdilution assay as described previously. […] Cytotoxicities against mammalian cells were measured against human RBCs, mouse macrophage-derived RAW264.7 cells, and fibroblast NIH-3T3 cells. The anti-inflammatory activities of the peptides were examined by inhibiting nitrite production in LPS-stimulated RAW264.7 cells."}, "[2]": {"tested_on": "gram-negative bacteria (E. coli, S. typhimurium, P. aeruginosa)", "method": "as §1, §2"}, "[3]": {"tested_on": "RAW264.7 macrophage cells", "experiment": "Cytotoxicity, MTT", "type": "cell-based, mouse", "settings": "MTT, 10 μM peptide", "method": "(§3) We examined the cytotoxicity against human erythrocytes. […] Next, we examined the cytotoxicity of the peptides against RAW264.7 macrophage cells. We assessed the effects of the peptides on cell growth by measuring mitochondrial reduction of MTT to a colored product in live cells. […] On the other hand, PapC produced high cytotoxicity against RAW264.7 cells, even at low concentrations. […] In case of PapN-2A, Pap-5A, and Pap-2A5A, the cell survival rates at a peptide concentration of 100 μM were approximately 90% or more. Thus, Trp^2 and Phe^5 are important for the cytotoxic activity of papiliocin toward RAW264.7 cells.\nas §2"}, "[4]": {"experiment": "Calcein leakage from zwitterionic LUVs", "settings": "EYPC/CH 10:1 LUVs, mimic human erythrocytes", "method": "Figure 5 Dose-response curves of calcein leakage from (A) egg yolk phosphatidylcholine (EYPC)/egg yolk phosphatidylglycerol (EYPG) (7:3, w:w) and (B) EYPC/cholesterol (CH) large unilamellar vesicles (LUVs; 10:1, w-w) induced by the peptides. Calcein leakage was measured 2 min after the addition of papiliocin. The lipid concentration used in the leakage experiments was 64 μM.\nNone of the peptides containing the N-terminal helix permeated zwitterionic vesicles (10:1 [w/w] EYPC/CH) effectively. Zwitterionic vesicles mimic the outer leaflet components of human erythrocytes.\nIn order to investigate the mode of action, membrane permeabilization ability was monitored using a model membrane and E.coli. Calcein leakage induced by the peptides was measured in egg yolk phosphatidylcholine (EYPC)/egg yolk phosphatidylglycerol (EYPG) (7:3, w/w) and EYPC/cholesterol (CH) large unilamellar vesicles (LUVs; 10:1, w:w) as described previously. The depolarization assay was conducted with intact E. coli bacteria (KCTC 1682) as well as E. coli spheroplasts (ATCC 25922)[51][52]. The ability of peptide to depolarize the membrane is indicated by an increase in the fluorescence of diSC3-5. […] The membrane potential dissipating activity of the peptides can be calculated as follows: […]"}, "[5]": {"tested_on": "LPS-stimulated RAW264.7 cells", "experiment": "Inhibition of NO (nitrite) production", "type": "cell-based, mouse", "settings": "10 μM peptide stated for PapN series", "text": "When released from gram-negative bacteria, LPS causes septic shock by inducing the production of pro-inflammatory cytokines and NO[33]. To examine the structural mechanism of the anti-inflammatory activity of papiliocin, we indirectly measured inhibition of NO production by the peptides in LPS-simulated RAW264.7 macrophages. […] Papiliocin was markedly more efficient than papiliocin-2A, papiliocin-5A, or papiliocin-2A5A, implying that Trp^2 and Phe^5 are important for anti-inflammatory activity.\nas §2"}, "MDRST 8009(R)": {"tested_on": "MDRST 8009(R)", "settings": "broth microdilution, 16 h; unit not given", "method": "(§4) We examined the antimicrobial activities of the peptides against multidrug-resistant bacterial strains, including four gram-negative species (S. typhimurium 8009(R), E. coli 1229(R), P. aeruginosa 2095(R), and A. baumannii 12035(R); Table 3).\nas §2"}, "MDRAB 12035(R)": {"tested_on": "MDRAB 12035(R)", "settings": "broth microdilution, 16 h; unit not given", "method": "as §4, §2"}, "MDRPA 2095(R)": {"tested_on": "MDRPA 2095(R)", "settings": "broth microdilution, 16 h; unit not given", "method": "as §4, §2"}, "MDREC 1229(R)": {"tested_on": "MDREC 1229(R)", "settings": "broth microdilution, 16 h; unit not given", "method": "as §4, §2"}, "[6]": {"experiment": "STD-NMR of peptides bound to LPS", "type": "binding", "settings": "0.5 mM peptide, 0.1 mg/mL LPS in D2O, pH 5.9, 298 K", "method": "To investigate the mode of peptide interaction with LPS, we performed STD-NMR experiments.\n(A) Papiliocin, (B) PapN, and (C) PapC. Spectral differences primarily constituted resonances fromn the peptide protons bound to LPS. The STD experiments were carried out using a peptide concentration of 0.5 mM in presence of 0.1 mg/mL LPS in D2O, pH 5.9 at 298 K."}, "Bacillus subtilis": {"tested_on": "Bacillus subtilis", "settings": "broth microdilution, 16 h incubation; three independent experiments in triplicate, SD 14.0%", "method": "as §2"}, "Eenterococcus faecalis": {"tested_on": "Eenterococcus faecalis", "settings": "broth microdilution, 16 h incubation; three independent experiments in triplicate, SD 14.0%", "method": "as §2"}, "Salmonella typhimurium": {"tested_on": "Salmonella typhimurium", "settings": "broth microdilution, 16 h incubation; three independent experiments in triplicate, SD 14.0%", "method": "as §2"}, "Staphylococcus aureus": {"tested_on": "Staphylococcus aureus", "settings": "broth microdilution, 16 h incubation; three independent experiments in triplicate, SD 14.0%", "method": "as §2"}, "Escherichia coli": {"tested_on": "Escherichia coli", "settings": "broth microdilution, 16 h incubation; three independent experiments in triplicate, SD 14.0%", "method": "as §2"}, "Pseudomonas aeruginosa": {"tested_on": "Pseudomonas aeruginosa", "settings": "broth microdilution, 16 h incubation; three independent experiments in triplicate, SD 14.0%", "method": "as §2"}, "human erythrocytes": {"tested_on": "human erythrocytes", "experiment": "Hemolytic activity", "type": "cell-based", "method": "as §3, §2"}, "[7]": {"settings": "ratio MHC (μM) over GM of MIC (μM)"}},
  "data": [
    {"substance": "AVAVVGQAATVVK-NH2 [PapC, C-terminal analog composed of C-terminal helix residues Ala25–Lys37 of papiliocin]", "values": [
      {"measurement": "killing of E. coli within an hour", "setting": "E. coli (KCTC 1682)", "value": "did not detectably kill bacteria within an hour"},
      {"measurement": "Therapeutic Index (MHC/GM), gram-positive", "setting": "[1]; [7]", "value": 0.006},
      {"measurement": "GM of the MIC values, gram-positive", "setting": "[1]; three gram-positive standard strains, 256 μM used when no activity at 128 μM", "value": 256, "unit": "µM"},
      {"measurement": "Therapeutic Index (MHC/GM), gram-negative", "setting": "[2]; [7]", "value": 0.007},
      {"measurement": "GM of the MIC values, gram-negative", "setting": "[2]; three gram-negative standard strains, 256 μM used when no activity at 128 μM", "value": 213, "unit": "µM"},
      {"measurement": "survival rate of RAW264.7 cells", "setting": "[3]", "value": 44.2, "unit": "%"},
      {"measurement": "permeabilization of zwitterionic vesicles, in words", "setting": "[4]", "value": "permeabilized zwitterionic vesicles effectively"},
      {"measurement": "inhibition of NO production, in words", "setting": "[5]", "value": "does not inhibit NO production"},
      {"measurement": "MIC, MDRST 8009(R)", "setting": "MDRST 8009(R)", "value": ">128", "unit": "µM"},
      {"measurement": "MIC, MDRAB 12035(R)", "setting": "MDRAB 12035(R)", "value": ">128", "unit": "µM"},
      {"measurement": "MIC, MDRPA 2095(R)", "setting": "MDRPA 2095(R)", "value": ">128", "unit": "µM"},
      {"measurement": "MIC, MDREC 1229(R)", "setting": "MDREC 1229(R)", "value": ">128", "unit": "µM"},
      {"measurement": "STD effect in presence of LPS", "setting": "[6]", "value": "not detected for any region"},
      {"measurement": "MIC, Bacillus subtilis", "setting": "Bacillus subtilis", "value": ">128", "unit": "µM"},
      {"measurement": "MIC, Eenterococcus faecalis", "setting": "Eenterococcus faecalis", "value": ">128", "unit": "µM"},
      {"measurement": "MIC, Salmonella typhimurium", "setting": "Salmonella typhimurium", "value": ">128", "unit": "µM"},
      {"measurement": "MIC, Staphylococcus aureus", "setting": "Staphylococcus aureus", "value": ">128", "unit": "µM"},
      {"measurement": "MIC, Escherichia coli", "setting": "Escherichia coli", "value": 128, "unit": "µM"},
      {"measurement": "MIC, Pseudomonas aeruginosa", "setting": "Pseudomonas aeruginosa", "value": ">128", "unit": "µM"},
      {"measurement": "MHC (minimal peptide concentration that produces hemolysis)", "setting": "human erythrocytes; human RBCs, 200 μM entered when no detectable hemolysis at 100 μM", "value": 1.56, "unit": "µM"},
      {"measurement": "hemolytic activity", "setting": "human erythrocytes; human erythrocytes, 6.25 μM peptide", "value": 49, "unit": "%"}
    ]}
  ]
}
